The values that follow come from patent US8404683B2, “Inhibitors of the interaction between MDM2 and P53” (Janssen Pharmaceutical N.V., priority 2004, dated 2013).

Structures can show the parent of a compound that is named as a salt.

For orientation: melting point means the temperature of the solid-liquid transition.

One data set concerns U87MG cells. Kind of data set: Proliferation assay (MTT-based) on U87MG tumour cells. The conditions noted are these: Homo sapiens, U-87 MG, 96 h, 4 days of incubation, negative log value of the IC50-value, read-out: cell proliferation pIC50 (converted). Put shortly:
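Human glioblastoma U87MG cells (wild-type p53) exposed to compound for 4 days at ≤0.1% DMSO, then MTT added for 2 h at 37 °C and absorbance read at 540 nm. Growth expressed as % of untreated control; IC50 by probit analysis, reported as pIC50.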

`COc1ccc2c(CNc3ccc(Nc4ccncc4)cc3)c[nH]c2c1` [Compound 7] returned a melting point of 145 °C. Moreover, the IC50 in the data set with U87MG cells is 2 µM.
In the case of `c1ccc2c(CCNc3ccc(CNc4ccncc4)cc3)c[nH]c2c1` [Compound 11], the melting point amounted to 122 °C. In addition, in the data set with U87MG cells, the IC50 was 5.01 µM.
In the same order, the values of `N#Cc1ccc2[nH]cc(C(O)C(=O)Nc3ccc(Nc4ccncc4)cc3)c2c1` (centres unmarked) [Compound 113] are 154 °C and greater than 10 µM.
Regarding `c1ccc2c(CCNc3ccc(NCc4ccncc4)cc3)c[nH]c2c1` (as salt: salt) [Compound 9], the melting point was determined as 132 °C.
For `OC1CCCc2c(Nc3ccc(NCCc4c[nH]c5ccccc45)cc3)ccnc21` (centres unmarked) [Compound 111], the melting point is 104 °C. Moreover, the IC50 in the data set on U87MG cells was 0.0794 µM.
Molecule `c1cncc(CNc2ccc(NCCc3c[nH]c4ccccc34)cc2)c1` (as salt: hydrochloric acid salt) [Compound 121] had a melting point of 130 °C.
With `c1ccc2c(CCNc3ccc(Nc4ccnc(-c5nnn[nH]5)c4)cc3)c[nH]c2c1` [Compound 87], the melting point turned out to be 210 °C. In addition, the IC50 in the data set with U87MG cells is greater than 10 µM.
With `c1ccc2c(CCNc3ccc(Nc4ncnc5[nH]ccc45)cc3)c[nH]c2c1` [Compound 117], the melting point was found to be 211 °C. Besides, the IC50 with U87MG cells is greater than 10 µM.
`c1cncc(Nc2ccc(NCCc3c[nH]c4ccccc34)cc2)c1` (as salt: HCl) [Compound 6] displayed a melting point of 160 °C.
The molecule `O=c1cc(Nc2ccc(NCCc3c[nH]c4ccccc34)cc2)c2ccccc2[nH]1` [Compound 3] gave a melting point of 238 °C. Also, the IC50 in the data set on U87MG cells was 5.01 µM.
For the molecule `Cn1cc(CCN(c2ccncc2)c2ccc(Nc3ccncc3)cc2)c2ccccc21` (as salt: hydrochloric acid salt) [Compound 10], the melting point is greater than 250 °C.
For the molecule `CCOc1cc(Nc2ccncc2)ccc1NCCc1c[nH]c2ccccc12` (as salt: hydrochloric acid salt) [Compound 2], the melting point was 150 °C.
The molecule `CCOc1cc(Nc2ccnc3c2CCC3O)ccc1NCCc1c[nH]c2cc(OC)ccc12` (centres unmarked) [Compound 112] yielded a melting point of 194 °C. Further, in the data set with U87MG cells, the IC50 was 0.0316 µM.
In the case of `c1ccc(Cc2noc(-c3cc(Nc4ccc(NCCc5c[nH]c6ccccc56)cc4)ccn3)n2)cc1` [Compound 108], the melting point is 159 to 161 °C.
As for `O=C(CCc1c[nH]c2ccccc12)Nc1ccc(Nc2ccncc2)cc1` [Compound 8], the melting point worked out at 208 °C. Also, the IC50 with U87MG cells was 5.01 µM.
`c1ccc2c(Nc3ccc(NCCc4c[nH]c5ccccc45)cc3)ccnc2c1` (as salt: HCl) [Compound 1]: the melting point is 170 °C.
Consider `OC1CCc2c(Nc3ccc(NCCc4c[nH]c5ccccc45)cc3)ccnc21` (centres unmarked) [Compound 110], for which the IC50 with U87MG cells is 0.01 µM.
For the molecule `COc1cc(Nc2ccnc(CO)c2)ccc1NCCc1c[nH]c2ccccc12` [Compound 179], in the data set with U87MG cells, the IC50 was 0.251 µM.
As for `CC(NCCN1CCOCC1)c1cc(Nc2ccc(NCCc3c[nH]c4ccccc34)cc2)ccn1` (centres unmarked) [Compound 144], the IC50 with U87MG cells is 3.16 µM.
`c1ccc(-c2noc(-c3cc(Nc4ccc(NCCc5c[nH]c6ccccc56)cc4)ccn3)n2)cc1` [Compound 107] showed a melting point of 170 to 174 °C.
With `COc1cccc2c(CCNc3ccc(Nc4ccncc4)cc3)c[nH]c12` [Compound 188], the IC50 in the data set with U87MG cells is 0.794 µM.
On the same count and under the same terms, for `CC(C)(C)OC(=O)N(CCc1cn(C(=O)OC(C)(C)C)c2ccccc12)c1ccc(Nc2ccnc(Cl)c2)cc1` [Compound 102] the value was greater than 10 µM.
Regarding `CN(C)Cc1cc(Nc2ccc(NCCc3c[nH]c4ccccc34)cc2)ccn1` [Compound 158], in the data set on U87MG cells, the IC50 is greater than 10 µM.
Consider `COc1cc(NCCc2c[nH]c3ccccc23)ccc1Nc1ccncc1` [Compound 85], for which the IC50 in the data set on U87MG cells is 0.158 µM.
Still for that read-out and setting: for `c1cc(NCCCc2c[nH]c3ccccc23)cc(Nc2ccncc2)c1` [Compound 84] the value was 1.58 µM; for `c1ccc2c(CCNc3ccc(Nc4ccnc5[nH]ccc45)cc3)c[nH]c2c1` [Compound 198], 1.26 µM.
Consider `O=C(C(Cc1c[nH]c2ccccc12)Nc1ccc(Nc2ccncc2)cc1)N1CCCCC1CCCO` (centres unmarked) [Compound 216], for which the IC50 in the data set with U87MG cells is 2.51 µM.
For `c1ccc(-c2cc(Nc3ccc(NCCc4c[nH]c5ccccc45)cc3)ccn2)cc1` [Compound 39], in the data set on U87MG cells, the IC50 is 0.631 µM.
On the same count and under the same terms, for `O=C(c1cc(Nc2ccc(NCCc3c[nH]c4ccccc34)cc2)ccn1)N1CCCC1` [Compound 49] the value was greater than 10 µM.
